Measurements: patent US8809280B2, “Therapeutic peptides” (Lytix Biopharma AS, priority 2009, dated 2014)
pEC50: −log10 of the molar value. Converted amounts (≈) assume the structure as drawn. “And” between values parts separate entries of the source, which are not always exact repeats. Identical values can stand only once. Like-named read-outs stand apart in the source and are kept apart here. Starred links: 1 amine or outer side, 2 acyl side, 3 side chain; linkers in the order of their positions; H or OH if unused. Non-standard residues stand in square brackets, D forms with d. Residues, ends and D or L forms follow the SMILES beside them. X1 = Cc1cc(C)cc(CC(CN[*:1])(Cc2cc(C)cc(C)c2)C(=O)[*:2])c1; X4 = O=C(C(CN[*:1])(Cc1ccc(F)cc1)Cc1ccc(F)cc1)[*:2]

Legend:
Assay type in all cases: cell-based
MRC-5 = test: Toxicity assay MRC-5; details: highest concentration tested 500 μg/ml; for IC50: Homo sapiens, MRC5, Example 2; for Toxicity MRC-5: Example 2
Protocol: Cells for Toxicity Studies Used MRC-5 and human RBC MRC-5 assay: 500 μg/ml

A20 = test: cells; details: for IC50: Mus musculus, A20, Example 2, read-out: Anticancer potency (IC50) A20; for Anti-Cancer Selectivity MRC-5/A20: ratio of MRC-5 to A20 values; for Anti-Cancer Selectivity RBC/A20: ratio of RBC EC50 to A20 IC50
Protocol: Cancer Cell Lines A20 or MethA Anticancer assays: 500 μg/ml

[1] = system: Staphylococcus aureus (ATTC 25923); test: microbe, parasite or virus in culture
Outline: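 Di-TFA salts tested in duplicate at 0.5–200 μg/ml against exponential-phase bacteria at 2×10^6 cfu/ml grown in 2% peptone water. Growth judged by well turbidity, with no-peptide and gentamicin controls.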

[2] = system: Escherichia coli (ATTC 25922); test: microbe, parasite or virus in culture
Outline: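 Broth dilution in 2% Bacto Peptone water, inoculum 2×10^6 cfu/ml of exponential-phase bacteria; compounds (di-TFA salts) tested in duplicate at 200 down to 0.5 μg/ml. Growth judged by well turbidity, with no-peptide negative and gentamicin positive controls.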

human red blood cells = test: cells; details: for EC50: Homo sapiens, Erythrocyte, Example 2, highest concentration tested 1000 μg/ml, * low solubility in the test media, read-out: Toxicity RBC (EC50)
Outline: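 Washed heparinized RBCs, diluted to 10% hematocrit then to 1% v/v final, incubated with compounds in PBS (1–1000 μg/mL) for 1 h at 37 °C with agitation. Hemoglobin release read at 405 nm against PBS (0%) and 0.1% Triton X-100 (100%); value reported is concentration giving 50% hemolysis.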

[3] = system: methicillin resistant Staphylococcus epidermidis (ATCC 27626); test: microbe, parasite or virus in culture
Outline: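 Exponentially grown bacteria (2% peptone water) at 2×10^6 cfu/ml exposed in duplicate to di-TFA salts at 0.5–200 μg/ml. Growth or no growth judged by well turbidity; no-peptide and gentamicin controls included.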

[4] = system: methicillin resistant Staphylococcus aureus (ATCC 33591); test: microbe, parasite or virus in culture
Outline: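 Di-TFA salts tested in duplicate at 200 down to 0.5 μg/ml against exponentially grown bacteria at 2×10^6 cfu/ml. Growth judged by well turbidity, with no-peptide and gentamicin controls.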

[5] = system: Pseudomonas aeruginosa (ATCC 27853); test: microbe, parasite or virus in culture; details: ATCC 27853
Protocol: Each compound was tested in duplicates at 200, 100, 50, 35, 15, 10, 5, 2.5, 1, 0.5 μg/ml. All tested compounds were di-trifluoroacetic acid salts.

[6] = Example 2, highest concentration tested 500 μg/ml, * low solubility in the test media (Table 2)
[7] = highest concentration tested 500 μg/ml, * low solubility in the test media (Table 2)
[8] = Example 2, values separated by / are repeat tests
[9] = Staphylococcus aureus, Example 2, values separated by / are repeat tests, read-out: Antimicrobial potency (MIC) S. aureus
[10] = Escherichia coli, Example 2, values separated by / are repeat tests, read-out: Antimicrobial potency (MIC) E. coli
[11] = Staphylococcus epidermidis, ATCC 27626 / MRSE, Example 2, values separated by / are repeat tests, read-out: Antimicrobial potency (MIC) MRSE
[12] = Staphylococcus aureus, ATCC 33591 / MRSA, Example 2, values separated by / are repeat tests, read-out: Antimicrobial potency (MIC) MRSA

Structure (SMILES)	IC50 (A20; [7]) [µg/mL]	MIC [1, 9] [µg/mL]	MIC [2, 10] [µg/mL]	MIC [3, 11] [µg/mL]	MIC [4, 12] [µg/mL]	IC50 (MRC-5) [µg/mL]	Anti-Cancer Selectivity MRC-5/A20 (A20)	Anti-Cancer Selectivity RBC/A20 (A20)	EC50 (human red blood cells) [µg/mL]	Toxicity MRC-5 (MRC-5)	also measured
NCCNC(=O)C(CN)(CCC1CCCCC1)CCC1CCCCC1 [Compound 3, N-(2-aminoethyl)-2-(aminomethyl)-4-cyclohexyl-2-(2-cyclohexylethyl)butanamide]	< 3.35	7.5	15	2.5		< 10	(<5.9)	36.5	62		Anticancer potency (IC50) A20 (A20; [6]): 1.7 µg/mL; Antimicrobial potency (MIC) S. aureus [1, 8]: 10 µg/mL; Antimicrobial potency (MIC) E. coli [2, 8]: 10 µg/mL; Antimicrobial potency (MIC) MRSE [3, 8]: 5 µg/mL
NCCNC(=O)C(CN)(Cc1ccccc1)Cc1ccccc1 [Compound 4]	68.6 (≈ 220 µM)	> 200	> 200	> 200	> 200	261 (≈ 838 µM)	3.8		> 1000		
CN(C)CCN1CCN(C(=O)C(CN)(Cc2ccc(C(C)(C)C)cc2)Cc2ccc(C(C)(C)C)cc2)CC1 [Compound 4d]											MBC S. aureus ([1]; ATTC 25923): >307 µM; Therapeutic index S. aureus ([1]; ATTC 25923): 26; MIC ([1]; ATTC 25923, read-out: MIC S. aureus): 13 µM; MIC S. aureus ([1]; Example 1, ATTC 25923, di TFA salts, highest concentration tested 200 μg/ml): — (The notation “—”denotes no detectable activity (MIC or EC50) within the concentration range tested.); Therapeutic index P. aeruginosa [5]: 1.3; MIC ([5]; read-out: MIC P. aeruginosa): 255 µM (≈ 133 µg/mL); MBC E. coli ([2]; ATTC 25922): >307 µM; Therapeutic index E. coli ([2]; ATTC 25922): 26; MIC ([2]; ATTC 25922, read-out: MIC E. coli): 13 µM; MIC E. coli ([2]; Example 1, ATTC 25922, di TFA salts, highest concentration tested 200 μg/ml): — (The notation “—”denotes no detectable activity (MIC or EC50) within the concentration range tested.); MBC MRSA ([4]; ATCC 33591): >307 µM; Therapeutic index MRSA ([4]; ATCC 33591): 26; MIC ([4]; ATCC 33591, read-out: MIC MTRSA): 13 µM; MIC MRSA ([4]; Example 1, ATCC 33591, di TFA salts, highest concentration tested 200 μg/ml): — (The notation “—”denotes no detectable activity (MIC or EC50) within the concentration range tested.); pEC50 (human red blood cells; red cells of human): 3.47; MBC MRSE ([3]; ATCC 27626): >307 µM; Therapeutic index MRSE ([3]; ATCC 27626): 26; MIC ([3]; ATCC 27626, read-out: MIC MRSE): 13 µM; MIC MRSE ([3]; Example 1, ATCC 27626, di TFA salts, highest concentration tested 200 μg/ml): — (The notation “—”denotes no detectable activity (MIC or EC50) within the concentration range tested.)
NCCNC(=O)C(CN)(CCCc1ccccc1)CCCc1ccccc1 [Compound 6, N-(2-aminoethyl)-2-(aminomethyl)-5-phenyl-2-(3-phenylpropyl)pentanamide]	8.3 (≈ 22.6 µM)	35	200	15	35	35 (≈ 95.2 µM)	4.2	98.8	820		Antimicrobial potency (MIC) S. aureus [1, 8]: 50 µg/mL
NCCNC(=O)C(CN)(Cc1ccc(C(F)(F)F)cc1)Cc1ccc(C(F)(F)F)cc1 [Compound 9, 3-amino-N-(2-aminoethyl)-2,2-bis(4-(trifluoromethyl)benzyl)propanamide]		10	35	10	5	< 10	10-12	287	287	12 µg/mL	
NCCCC[C@@H](N)C(=O)N[C@H](CCCCN)C(=O)N[C@H](Cc1c[nH]c2ccccc12)C(=O)NCC(Cc1ccc(F)cc1)(Cc1ccc(F)cc1)C(=O)N[C@@H](Cc1c[nH]c2ccccc12)C(=O)N[C@@H](CCCCN)C(=O)N[C@@H](CCCCN)C(N)=O [Compound 19, (R)-N-((2R,9S,12S,15S)-9-((1H-indol-3-yl)methyl)-19-amino-12-(4-aminobutyl)-15-carbamoyl-6,6-bis(4-fluorobenzyl)-1-(1H-indol-3-yl)-3,7,10,13-tetraoxo-4,8,11,14-tetraazanonadecan-2-yl)-6-amino-2-((R)-2,6-diaminohexanamido)hexanamide] (H-[dK][dK][dW][X4]WKK-NH2)							(>2.5)			>500 µg/mL	Anticancer potency (IC50) A20 (A20): 197 µg/mL
NCCCC[C@@H](N)C(=O)N[C@H](CCCCN)C(=O)N[C@H](Cc1c[nH]c2ccccc12)C(=O)NCC(Cc1ccc(C(F)(F)F)cc1)(Cc1ccc(C(F)(F)F)cc1)C(=O)N[C@@H](Cc1c[nH]c2ccccc12)C(=O)N[C@@H](CCCCN)C(=O)N[C@@H](CCCCN)C(N)=O [Compound 20, (R)-N-((2R,9S,12S,15S)-9-((1H-indol-3-yl)methyl)-19-amino-12-(4-aminobutyl)-15-carbamoyl-1-(1H-indol-3-yl)-3,7,10,13-tetraoxo-6,6-bis(4-(trifluoromethyl)benzyl)-4,8,11,14-tetraazanonadecan-2-yl)-6-amino-2-((R)-2,6-diaminohexanamido)hexanamide]							7.0			260 µg/mL	Anticancer potency (IC50) A20 (A20): 37 µg/mL
CC(C)(C)c1ccc(CC(CNC(=O)[C@@H](Cc2c[nH]c3ccccc23)NC(=O)[C@@H](CCCCN)NC(=O)[C@H](N)CCCCN)(Cc2ccc(C(C)(C)C)cc2)C(=O)N[C@@H](Cc2c[nH]c3ccccc23)C(=O)N[C@@H](CCCCN)C(=O)N[C@@H](CCCCN)C(N)=O)cc1 [Compound 21, (R)-N-((2R,9S,12S,15S)-9-((1H-indol-3-yl)methyl)-19-amino-12-(4-aminobutyl)-6,6-bis(4-tert-butylbenzyl)-15-carbamoyl-1-(1H-indol-3-yl)-3,7,10,13-tetraoxo-4,8,11,14-tetraazanonadecan-2-yl)-6-amino-2-((R)-2,6-diaminohexanamido)hexanamide]							2.9 and 3.2			42 µg/mL and 55.2 µg/mL	
Cc1cc(C)cc(CC(CNC(=O)[C@@H](Cc2c[nH]c3ccccc23)NC(=O)[C@@H](CCCCN)NC(=O)[C@H](N)CCCCN)(Cc2cc(C)cc(C)c2)C(=O)N[C@@H](Cc2c[nH]c3ccccc23)C(=O)N[C@@H](CCCCN)C(=O)N[C@@H](CCCCN)C(N)=O)c1 [Compound 22, (R)-N-((2R,9S,12S,15S)-9-((1H-indol-3-yl)methyl)-19-amino-12-(4-aminobutyl)-15-carbamoyl-6,6-bis(3,5-dimethylbenzyl)-1-(1H-indol-3-yl)-3,7,10,13-tetraoxo-4,8,11,14-tetraazanonadecan-2-yl)-6-amino-2-((R)-2,6-diaminohexanamido)hexanamide] (H-[dK][dK][dW][X1]WKK-NH2)							7.4 and 5.1			237 µg/mL and 205 µg/mL	

Now from value to compound, other results behind:

IC50 (A20; [7]) [µg/mL]	MIC [1, 9] [µg/mL]	MIC [2, 10] [µg/mL]	MIC [3, 11] [µg/mL]	MIC [4, 12] [µg/mL]	Structure (SMILES)	IC50 (MRC-5) [µg/mL]	Anti-Cancer Selectivity MRC-5/A20 (A20)	Anti-Cancer Selectivity RBC/A20 (A20)	EC50 (human red blood cells) [µg/mL]	Toxicity MRC-5 (MRC-5)	also measured
	5		5	5	CC(C)c1ccc(CC(CN)(Cc2ccc(C(C)C)cc2)C(=O)NCCN)cc1 [Compound 10, 3-amino-N-(2-aminoethyl)-2,2-bis(4-isopropylbenzyl)propanamide]	< 6.67	(<4.8)	33.6	47		Antimicrobial potency (MIC) S. aureus [1, 8]: 10 µg/mL; Antimicrobial potency (MIC) MRSA [4, 8]: 10 µg/mL
	2.5	5	2.5	2.5	CC(C)(C)c1ccc(CC(CN)(Cc2ccc(C(C)(C)C)cc2)C(=O)NCCN)cc1 [Compound 11, 3-amino-N-(2-aminoethyl)-2,2-bis(4-tert-butylbenzyl)propanamide]	4 (≈ 9.44 µM)	3.6	10.9	12		
< 5	35	50	5	35	Cc1cc(C)cc(CC(CN)(Cc2cc(C)cc(C)c2)C(=O)NCCN)c1 [Compound 12, 3-amino-N-(2-aminoethyl)-2,2-bis(3,5-dimethylbenzyl)propanamide]	10 (≈ 27.2 µM)	(>2 )				Anticancer potency (IC50) A20 (A20; [6]): < 10 µg/mL; Antimicrobial potency (MIC) E. coli [2, 8]: 100 µg/mL; Antimicrobial potency (MIC) MRSE [3, 8]: 10 µg/mL
